Values joined by “and” are separate entries in the source; they are usually repeats but may differ in a detail not shown here. Equal entries are not always repeated.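 Test compounds were applied to cells in 96-well plates for 48 hours at 5 doses. Abbreviation: GI50, concentration required for 50% inhibition of growth.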 Active and inactive are the calls of the source. Rule as the data show it: active = GI50 up to about 1.1 µM and inactive = higher.
Key:
Assay in all cases: inhibition of tumour cell growth, NCI panel, 48 h
COLO 205 = test system: COLO 205
DU-145 = test system: DU-145
HCC 2998 = test system: HCC 2998
HOP-92 = test system: HOP-92
Hs-578T = test system: Hs-578T
K562 = test system: K562
KM12 = test system: KM12
MDA-MB-435 = test system: MDA-MB-435
MOLT-4 = test system: MOLT-4
NCI-H23 = test system: NCI-H23
NCI-H460 = test system: NCI-H460
OVCAR-5 = test system: OVCAR-5
RXF 393 = test system: RXF 393
SF-295 = test system: SF-295
SF-539 = test system: SF-539
SNB-19 = test system: SNB-19
SR = test system: SR
SW-620 = test system: SW-620
T47D = test system: T47D
U-251 = test system: U-251

SMILES | GI50 (COLO 205) | GI50 (DU-145) | GI50 (HCC 2998) | GI50 (HOP-92) | GI50 (Hs-578T) | GI50 (K562) | GI50 (KM12) | GI50 (MDA-MB-435) | GI50 (MOLT-4) | GI50 (NCI-H23) | GI50 (NCI-H460) | GI50 (OVCAR-5) | GI50 (RXF 393) | GI50 (SF-295) | GI50 (SF-539) | GI50 (SNB-19) | GI50 (SR) | GI50 (SW-620) | GI50 (T47D) | GI50 (U-251)
CC(=NNC(=S)Nc1ccc(C)cc1)c1cccc(C(C)=NNC(=S)Nc2ccc(C)cc2)n1 | 3.83 µM (inactive) | > 100 µM (inactive) | 35.6 µM (inactive) | 10 µM (inactive) | 41.1 µM (inactive) | 12.2 µM (inactive) | 13.8 µM (inactive) | 13.6 µM (inactive) | 4.18 µM (inactive) | 22 µM (inactive) | 6.47 µM (inactive) | 60.5 µM (inactive) | 14.4 µM (inactive) | 11 µM (inactive) | 7.01 µM (inactive) | 36.3 µM (inactive) | 4.02 µM (inactive) | 10.9 µM (inactive) | 29.6 µM (inactive) | 31.3 µM (inactive)
N=c1oc2ccc(Cl)cc2cc1C(=O)Nc1ccccc1 | > 100 µM (inactive) | > 100 µM (inactive) | 36.3 µM (inactive) | 10.5 µM (inactive) | 15.4 µM (inactive) | 27 µM (inactive) | 79.4 µM (inactive) | > 100 µM (inactive) | > 100 µM (inactive) | > 48.5 µM (inactive) | > 100 µM (inactive) | > 100 µM (inactive) | 26.2 µM (inactive) | > 100 µM (inactive) | > 65.9 µM (inactive) | > 62.5 µM (inactive) | > 100 µM (inactive) | > 100 µM (inactive) | 17.3 µM (inactive) | > 46.1 µM (inactive)
CC(C)C1CC=NN1C(=O)OC(C)(C)C (configuration not stated) | > 100 µM (inactive) | > 100 µM (inactive) | > 100 µM (inactive) | > 100 µM (inactive) | > 100 µM (inactive) | > 100 µM (inactive) | > 100 µM (inactive) | > 100 µM (inactive) | > 100 µM (inactive) | > 100 µM (inactive) | > 100 µM (inactive) | > 100 µM (inactive) | > 100 µM (inactive) | > 100 µM (inactive) | > 100 µM (inactive) | – | > 100 µM (inactive) | > 100 µM (inactive) | > 100 µM (inactive) | –
CC(=O)Oc1ccc2c(C)cc(=O)oc2c1 | > 100 µM (inactive) | > 100 µM (inactive) | > 100 µM (inactive) | > 100 µM (inactive) | > 100 µM (inactive) | > 100 µM (inactive) | > 100 µM (inactive) | > 100 µM (inactive) | > 100 µM (inactive) | > 100 µM (inactive) | > 100 µM (inactive) | > 100 µM (inactive) | > 100 µM (inactive) | > 100 µM (inactive) | > 100 µM (inactive) | > 100 µM (inactive) | > 100 µM (inactive) | > 100 µM (inactive) | > 100 µM (inactive) and 61.7 µM (inactive) | > 100 µM (inactive)
O=S(=O)(c1cc(Cl)ccc1Cl)n1ccnc1 | 17.9 µM (inactive) | 35.4 µM (inactive) | 15.8 µM (inactive) | 39.9 µM (inactive) | 51.4 µM (inactive) | 34 µM (inactive) | 33.6 µM (inactive) | 18.2 µM (inactive) | 32.6 µM (inactive) | 20.9 µM (inactive) | 25.9 µM (inactive) | 35.5 µM (inactive) | 28 µM (inactive) | > 100 µM (inactive) | 17.4 µM (inactive) | 70.8 µM (inactive) | 25.4 µM (inactive) | 77.4 µM (inactive) | 48.3 µM (inactive) | 33 µM (inactive)
CCOC(=O)[C@@H](Cc1ccc(CCl)cc1)NC(C)=O | 18.1 µM (inactive) | 38.1 µM (inactive) | 17.7 µM (inactive) | 23.4 µM (inactive) | 25.5 µM (inactive) | 34.4 µM (inactive) | 20.2 µM (inactive) | 19.9 µM (inactive) | 29.2 µM (inactive) | 25 µM (inactive) | 19 µM (inactive) | 20.6 µM (inactive) | 14 µM (inactive) | 32.8 µM (inactive) | 18.3 µM (inactive) | 27.2 µM (inactive) | 29.4 µM (inactive) | 31 µM (inactive) | 26.3 µM (inactive) | 19.6 µM (inactive)
CC1CCC2(OC1)OC1CC3C4CC=C5CC(OC6OC(CO)C(OC7OC(C)C(OC8OC(C)C(O)C(O)C8O)C(O)C7O)C(O)C6OC6OC(C)C(O)C(O)C6O)CCC5(C)C4CCC3(C)C1C2C (configuration not stated) | 1.28 µM (inactive) | 1.28 µM (inactive) | 0.313 µM (active) | 0.0703 µM (active) | 0.264 µM (active) | 0.142 µM (active) | 0.16 µM (active) | 0.281 µM (active) | 0.237 µM (active) | 1.66 µM (inactive) | 1.61 µM (inactive) | 1.12 µM (inactive) | 0.583 µM (active) | 0.308 µM (active) | 0.394 µM (active) | 0.262 µM (active) | 0.0196 µM (active) | 1.48 µM (inactive) | 1.24 µM (inactive) | 0.65 µM (active)
CN1c2ccccc2C(=O)NC12CCNCC2 | > 100 µM (inactive) | > 100 µM (inactive) | > 100 µM (inactive) | > 100 µM (inactive) | 0.082 µM (active) | > 100 µM (inactive) | > 100 µM (inactive) | > 100 µM (inactive) | > 100 µM (inactive) | > 100 µM (inactive) | > 100 µM (inactive) | > 100 µM (inactive) | > 100 µM (inactive) | > 100 µM (inactive) | > 100 µM (inactive) | > 100 µM (inactive) | > 100 µM (inactive) | > 100 µM (inactive) | > 100 µM (inactive) | > 100 µM (inactive)
NC(=O)C(=CNC(=S)c1ccncc1)C(N)=O | > 100 µM (inactive) | > 100 µM (inactive) | > 100 µM (inactive) | > 100 µM (inactive) | > 100 µM (inactive) | > 100 µM (inactive) | > 100 µM (inactive) | > 100 µM (inactive) | > 100 µM (inactive) | > 100 µM (inactive) | > 100 µM (inactive) | > 100 µM (inactive) | > 100 µM (inactive) | > 100 µM (inactive) | > 100 µM (inactive) | > 100 µM (inactive) | > 100 µM (inactive) | > 100 µM (inactive) | > 100 µM (inactive) | > 100 µM (inactive)
Cc1cc2nc(N3C(=O)/C(=C/c4ccc(Cl)cc4)N=C3c3ccccc3)sc2cc1C | 16.1 µM (inactive) | 50.8 µM (inactive) | 24.2 µM (inactive) | 8.55 µM (inactive) | 26 µM (inactive) | 32.4 µM (inactive) | 16.3 µM (inactive) | 8.28 µM (inactive) | 53.8 µM (inactive) | – | 23.7 µM (inactive) | 24.2 µM (inactive) | 14.6 µM (inactive) | 31.2 µM (inactive) | 18.7 µM (inactive) | 42.5 µM (inactive) | 46.5 µM (inactive) | 27.6 µM (inactive) | 27.5 µM (inactive) | 29.9 µM (inactive)
COc1cc(/C=C2/SC(c3ccccc3)N(c3cccc(NC(C)=O)c3)C2=O)cc(OC)c1OC (configuration not stated) | 41.9 µM (inactive) | 92.3 µM (inactive) | > 100 µM (inactive) | 85.3 µM (inactive) | 23.9 µM (inactive) | 35.6 µM (inactive) | 39.1 µM (inactive) | 35 µM (inactive) | 31.3 µM (inactive) | 44.9 µM (inactive) | 71.9 µM (inactive) | > 100 µM (inactive) | 24.8 µM (inactive) | 58.5 µM (inactive) | 49.3 µM (inactive) | 31 µM (inactive) | 23.4 µM (inactive) | 57.1 µM (inactive) | 45.7 µM (inactive) | –
CC1=C(C#N)C(C#N)(C#N)C(NN(C)C)C1 (configuration not stated) | 3.83 µM (inactive) | 15.7 µM (inactive) | 17.2 µM (inactive) | 15.1 µM (inactive) | > 100 µM (inactive) | 12.2 µM (inactive) | 16.6 µM (inactive) | 23.7 µM (inactive) | 18.5 µM (inactive) | 17.1 µM (inactive) | – | 23.3 µM (inactive) | 13 µM (inactive) | 24.5 µM (inactive) | 36.1 µM (inactive) | > 10 µM (inactive) | 25.4 µM (inactive) | 17.3 µM (inactive) | 6.15 µM (inactive) | 33.9 µM (inactive)
c1ccc(CN2CCC(Nc3ccccc3)(c3nnnn3Cc3ccccc3)CC2)cc1 | 11.6 µM (inactive) | 38.4 µM (inactive) | 3.01 µM (inactive) | 5.37 µM (inactive) | 24.2 µM (inactive) | – | 13.3 µM (inactive) | 32.9 µM (inactive) | 10.1 µM (inactive) | 50 µM (inactive) | 15.7 µM (inactive) | 22.5 µM (inactive) | 27.4 µM (inactive) | 20.5 µM (inactive) | 20.5 µM (inactive) | 27.3 µM (inactive) | 8.77 µM (inactive) | 22.2 µM (inactive) | 19.5 µM (inactive) | 22.6 µM (inactive)
COP(=O)(OC)C(NC=O)P(=O)(OC)OC | > 100 µM (inactive) | > 100 µM (inactive) | > 100 µM (inactive) | > 100 µM (inactive) | > 100 µM (inactive) | > 100 µM (inactive) | – | > 100 µM (inactive) | > 100 µM (inactive) | > 100 µM (inactive) | > 100 µM (inactive) | – | > 100 µM (inactive) | > 100 µM (inactive) | > 100 µM (inactive) | > 100 µM (inactive) | > 100 µM (inactive) | > 100 µM (inactive) | > 100 µM (inactive) | > 100 µM (inactive)

From ChEMBL document CHEMBL1201862, “PubChem BioAssay data set” (2004)
